Source: US5453441A, “Substituted arginines and substituted homoarginines and use thereof” (Cornell Research Foundation, Inc., priority 1994, dated 1995)

Legend:
pressor response = type: in vivo, rat; settings: phenylephrine 0.1 to 10 μg/kg, angiotensin II 0.01 to 1 μg/kg
Method: To establish that nitric oxide overproduction can result in a diminished sensitivity to pressor agents, studies in a rat model of septic hypotension, i.e., the endotoxic-, pithed-rat, are performed.
Animals are either untreated (control) or treated with endotoxin (lipopolysaccharide-treated; 15 mg/kg, i.p.) 6 hours prior to their being pithed and instrumented for blood pressure recording. Prior to pithing, mean systematic arterial pressure in control rats is about 120 mm Hg. Pressure falls about 50% after pithing of control animals and is reduced to about 25% of normal in pithed endotoxin-treated animals.
Responsiveness is restored to more than 50% of the responsiveness seen in pithed control rats.

[1] = test system: inducible form of nitric oxide synthase; assay: Inhibition of nitric oxide synthesis by nitric oxide synthase (inducible form) from cytokine-treated rat aortic smooth muscle cells; type: biochemical, adult male Fischer 344 rats
Method: Reaction mixtures were made up containing 50 μL of a working solution, 10 μL myoglobin solution (3 mg/ml), 10 μL inhibitor, 20 μL nitric oxide synthase and 10 μL water.
The working mixture was made up to contain 160 mM tris buffer, 200 μM L-arginine, 1 mM NADPH, 20 μM flavin adenine dinucleotide, 20 μM tetrahydrobiopterin in distilled water (pH adjusted to 7.6 by adding 10N NaOH).
The nitric oxide synthase was obtained as follows: Aortic smooth muscle cells were cultured by explanting segments of the medial layer of aortae from adult male Fischer 344 rats. Aortae were removed aseptically and freed of adventitial and endothelial cells by scraping both the lumenal and abluminal surfaces. Medial fragments (1-2 mm) were allowed to attach to dry Primaria 25 cm^2 tissue culture flasks (Falcon; Oxnard, Calif.) which were kept moist with growth medium until cells emerged. Cultures were fed twice weekly with medium 199 containing 10% fetal bovine serum, 25 mM HEPES, 2 mM L-glutamine, 40 μg/ml endothelial cell growth supplement (Biomedical Technologies; Stoughton, Mass.) and 10 μg/ml gentamycin (GIBCO; Grand Island, N.Y.). When primary cultures became confluent, they were passaged by trypsinization. Cells in passage 10-15 were seeded at 20,000/well. […]

Row | Compound | pressor effect in pithed control rats (pressor response) | pressor effect in pithed endotoxic rats (pressor response) | effectiveness relative to the commercial compound (N^ω -methyl-DL-arginine), based on the concentration necessary to inhibit 50% [1]
1 | angiotensin II: listed among suitable α1 -adrenergic agonists; pressor agent (DRVYIHPF; Angiotensin-2; UniProt P01019 25-32, looked up) | strong pressor effect | negligible effect | –
2 | CC(N)(CCCNC(=N)NN)C(=O)O (racemic) [α-methyl-N^ω -amino-DL-arginine, α-Methyl-N^ω -Amino-DL-Arginine] | – | – | about twice as effective as the commercial compound
3 | CNC[C@H](O)c1cccc(O)c1 [phenylephrine] | strong pressor effect | negligible effect | –
